Biological target: GPR174-v38 (Homo sapiens, UniProt Q9BXC1)
Assay: Inhibition of PS-induced GPR174 Gs signaling (GloSensor), HEK293 stably transfected with GPR174-v38
Assay type: cell-based
Conditions: PS liposomes 1 μM; for IC50: GPR174-v38 (compound 59: data not shown), read-out: apparent IC50, inhibition of PS-induced GPR174 Gs signaling

| Compound | PS-mediated GPR174 Gs signaling (FIGS. 47B-47F) | IC50 [nM] |
| --- | --- | --- |
| O=C(c1ccccc1)N1CCN(c2cc(N3CCCCC3)c(F)cc2[N+](=O)[O-])CC1 [compound 6] | inhibited | ~100 |
| O=[N+]([O-])c1cc(F)c(N2CCCCC2)cc1N1CCN(S(=O)(=O)c2ccccc2)CC1 [compound 11] | inhibited | ~100 |
| Cc1ccccc1Nc1nnc(-c2ccc(C)c(S(N)(=O)=O)c2)c2ccccc12 [compound 20] | inhibited | ~3000 |
| CCOc1ccc(C2C3=C(CCCC3=O)NC3=C2C(=O)c2ccccc23)cc1 (centres unmarked) [compound 23] | inhibited | ~150 |
| CCOc1ccc(C2C3=C(CCCC3=O)NC3=C2C(=O)c2ccccc23)cc1OCC (centres unmarked) [compound 30] | inhibited | ~1300 |
| S=C(NCc1ccco1)Nc1ccc(I)cc1 [compound 59] |  | ~10000 |
